Assay results from patent US6664271B1, “Immunopotentiator agents” (Eli Lilly and Company, priority 1999, dated 2003).
Marks after values point to notes of the source that are not given here.

Key:
E. coli = assay: colibacillosis infection model in broiler chickens, Trial B (Example 78); assay type: in vivo, chicken
mononuclear leukocytes = assay: mammalian T-lymphocyte blastogenesis assay, porcine (Example 75); assay type: cell-based
Protocol: The compound prepared in Example 30, namely (S)-ethyl 1-(2-thiopheneacetyl)-3-peridinecarboxylate, was further evaluated for in vitro T-lymphocyte blastogenic activity from mammalian species other than avian.
The mammalian blastogenesis assays were conducted with the same protocol as the vian assays with the following exceptions:
1. Only mononuclear leukocytes are used for the mammalian assay. The cells are obtained from whole blood by differential centrifugation using Histopague 1.077 (Sigma Chemical Company, St. Louis, Mo).
2. 0.5% Fetal Bovine Serum (FBS) [GIBCOBRL, Grand Island N.Y.] is added to RPMI 1640 medium. Exception: Non-human primate plasma is used instead of FBS at 5 ml/liter to RPMI 1640 medium.
3. 5×10^5 cells/well were used with the mammalian assays.

CCOC(=O)[C@H]1CCCN(C(=O)Cc2cccs2)C1 [Example 30, (S)-Ethyl 1-(2-Thiopheneacetyl)-3-piperidinecarboxylate]
% Colibacillosis-associated Mortality (E. coli; 2 μg/chick subcutaneous): 5%
Average Weight Gain/Bird (lbs) (E. coli; 2 μg/chick subcutaneous): 2.53 lb (1.15 kg)
Feed/Gain (E. coli; 2 μg/chick subcutaneous): 1.56
% Colibacillosis-associated Mortality (E. coli; 12.5 μg/chick subcutaneous): 2.8* %
% Total Mortality (E. coli; 12.5 μg/chick subcutaneous): 10* %
Average Weight Gain/Bird (lbs) (E. coli; 12.5 μg/chick subcutaneous): 2.44 lb (1.11 kg)
Feed/Gain (E. coli; 12.5 μg/chick subcutaneous): 1.59
% Colibacillosis-associated Mortality (E. coli; 25 μg/chick subcutaneous): 6.8%
% Total Mortality (E. coli; 25 μg/chick subcutaneous): 14.3%
Average Weight Gain/Bird (lbs) (E. coli; 25 μg/chick subcutaneous): 2.49 lb (1.13 kg)
Feed/Gain (E. coli; 25 μg/chick subcutaneous): 1.57
MSC (mononuclear leukocytes): 10 μg μg/ml
MTC (mononuclear leukocytes): 1 mg/mL
